# Patent US20190367516A1 (Bayer Pharma Aktiengesellschaft, priority 2015, published 2019)
# Read-outs that look alike come from different tables or passages of the source.
# Biological target: T1, human M2 receptor (Homo sapiens, UniProt P08172)
# T1 sequence (P08172 1-466): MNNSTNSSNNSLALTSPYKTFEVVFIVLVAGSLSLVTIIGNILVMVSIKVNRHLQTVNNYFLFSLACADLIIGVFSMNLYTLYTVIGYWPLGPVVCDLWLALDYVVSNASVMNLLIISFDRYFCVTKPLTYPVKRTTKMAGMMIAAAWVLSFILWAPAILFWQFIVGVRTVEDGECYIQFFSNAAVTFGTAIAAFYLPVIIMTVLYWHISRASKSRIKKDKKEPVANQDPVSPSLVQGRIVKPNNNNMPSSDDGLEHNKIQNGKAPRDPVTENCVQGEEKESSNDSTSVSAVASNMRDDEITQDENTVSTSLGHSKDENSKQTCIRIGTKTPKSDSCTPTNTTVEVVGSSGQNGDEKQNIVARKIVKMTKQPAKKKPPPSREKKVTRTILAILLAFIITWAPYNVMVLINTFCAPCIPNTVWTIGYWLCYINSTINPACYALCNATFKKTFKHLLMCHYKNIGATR
# Details: for Emax: read-out: Efficiency, boosting of the acetylcholine effect at EC20 acetylcholine concentration; for Efficiency: boosting of the acetylcholine effect at EC20 acetylcholine concentration
# [1] = Receptor activity EC50, allosteric potency at EC20 acetylcholine, M2-GIRK1/4 reporter cells, in some cases mean of two or more determinations
# [2] = Receptor activity EC50, M2-GIRK1/4 activation test, acetylcholine at EC20, allosteric potency, in some cases mean values from two or more determinations
EC50 [1] [nM],Emax (M2-GIRK1/4 reporter cells) [%],EC50 [2] [nM],SMILES,also measured
106,84.9,–,"COC(=O)[C@H]1CN(c2ccc3c(=O)c(C(=O)N[C@@H](C4CC4)C(F)(F)F)cn(-c4c(F)cc(F)cc4F)c3n2)C(=O)O1 [Example 669, Methyl (5R)-3-[6-{[(1S)-1-cyclopropyl-2,2,2-trifluoroethyl]carbamoyl}-5-oxo-8-(2,4,6-trifluorophenyl)-5,8-dihydro-1,8-naphthyridin-2-yl]-2-oxo-1,3-oxazolidine-5-carboxylate]",–
–,–,50,"C[C@@H](COC(F)(F)F)NC(=O)c1cn(-c2c(F)cc(F)cc2F)c2nc(N3C[C@@H](O)[C@H](O)C3)ccc2c1=O [Example 353, 7-[(3R,4R)-3,4-Dihydroxypyrrolidin-1-yl]-4-oxo-N-[(2S)-1-(trifluoromethoxy)propan-2-yl]-1-(2,4,6-trifluorophenyl)-1,4-dihydro-1,8-naphthyridine-3-carboxamide]",–
–,–,46,"N#CN1CCCN(c2ccc3c(=O)c(C(=O)N[C@@H](C4CC4)C(F)(F)F)cn(-c4c(F)cc(F)cc4F)c3n2)C1=O [Example 380, 7-(3-Cyano-2-oxotetrahydropyrimidin-1(2H)-yl)-N-[(1S)-1-cyclopropyl-2,2,2-trifluoroethyl]-4-oxo-1-(2,4,6-trifluorophenyl)-1,4-dihydro-1,8-naphthyridine-3-carboxamide]",–
56,100,–,"CC(C)(CC(F)(F)F)NC(=O)c1cn(-c2c(F)cc(F)cc2F)c2nc(N3CC(O)C4(CC4)C3)ccc2c1=O (single isomer, unassigned) [Example 570, 7-[7-Hydroxy-5-azaspiro[2.4]hept-5-yl]-4-oxo-N-(4,4,4-trifluoro-2-methylbutan-2-yl)-1-(2,4,6-trifluorophenyl)-1,4-dihydro-1,8-naphthyridine-3-carboxamide]",–
–,–,164,"CC[C@@H](NC(=O)c1cn(-c2ccc(F)cc2F)c2nc(NCC(F)(F)F)ccc2c1=O)C(F)(F)F [Example 94, 1-(2,4-Difluorophenyl)-4-oxo-N-[(2R)-1,1,1-trifluorobutan-2-yl]-7-[(2,2,2-trifluoroethyl)amino]-1,4-dihydro-1,8-naphthyridine-3-carboxamide]",–
–,–,73,"CC(C)CC(NC(=O)c1cn(-c2ccc(F)cc2F)c2nc(NCCO)ccc2c1=O)C(F)(F)F (stereo not drawn) [Example 80, 1-(2,4-Difluorophenyl)-7-[(2-hydroxyethyl)amino]-4-oxo-N-[1,1,1-trifluoro-4-methylpentan-2-yl]-1,4-dihydro-1,8-naphthyridine-3-carboxamide]",–
–,–,–,"CC(NC(=O)c1cn(-c2c(F)cc(F)cc2F)c2nc(N3C[C@@H](O)[C@H](O)C3)ccc2c1=O)(C1CC1)C(F)(F)F (stereo partly drawn) [Example 443, N-[2-Cyclopropyl-1,1-trifluoropropan-2-yl]-7-[(3R,4R)-3,4-dihydroxypyrrolidin-1-yl]-4-oxo-1-(2,4,6-trifluorophenyl)-1,4-dihydro-1,8-naphthyridine-3-carboxamide]","Efficiency (M2-GIRK1/4 reporter cells): 100.0%; EC50 (read-out: Receptor activity EC50, allosteric potency at EC20 acetylcholine, M2-GIRK1/4 reporter cells, in some cases mean of two or more determinations): 9 nM"
51,100,–,"C[C@@H]1CN(c2ccc3c(=O)c(C(=O)N[C@@H](C4CC4)C(F)(F)F)cn(-c4c(F)cc(F)cc4F)c3n2)C(=O)O1 [Example 444, N-[(1S)-1-Cyclopropyl-2,2,2-trifluoroethyl]-7-[(5R)-5-methyl-2-oxo-1,3-oxazolidin-3-yl]-4-oxo-1-(2,4,6-trifluorophenyl)-1,4-dihydro-1,8-naphthyridine-3-carboxamide]",–
6,–,–,"O=C(NC(c1ccccc1Cl)C(F)(F)F)c1cn(-c2c(F)cc(F)cc2F)c2nc(N3C[C@@H](O)CC3=O)ccc2c1=O (single isomer, unassigned) [Example 534]",Efficiency (M2-GIRK1/4 reporter cells): 100.0%
–,–,29,"CN(CC(F)F)c1ccc2c(=O)c(C(=O)NC34CC5CC(CC(C5)C3)C4)cn(-c3ccc(F)cc3F)c2n1 [Example 112, 7-[(2,2-Difluoroethyl)(methyl)amino]-1-(2,4-difluorophenyl)-4-oxo-N-(tricyclo[3.3.1.1^3,7]dec-1-yl)-1,4-dihydro-1,8-naphthyridine-3-carboxamide]",–
–,–,178,"CC(NC(=O)c1cn(-c2ccc(F)cc2F)c2nc(N3C[C@@H](O)CC3=O)ccc2c1=O)c1c(F)cccc1F (single isomer, unassigned) [Example 215]",–
–,–,59,"CC[C@@H](NC(=O)c1cn(-c2c(F)cccc2F)c2nc(N3CCC(O)C3=O)ccc2c1=O)C(F)(F)F (mixture of isomers) [Example 292, 1-(2,6-Difluorophenyl)-7-[3-hydroxy-2-oxopyrrolidin-1-yl]-4-oxo-N-[(2R)-1,1,1-trifluorobutan-2-yl]-1,4-dihydro-1,8-naphthyridine-3-carboxamide]",–
63,96,–,CC[C@H](NC(=O)c1cn(-c2c(F)cc(F)cc2F)c2nc(NC(C)(C)C)ccc2c1=O)C(F)(F)F [Example 499],–
11,98.5,–,"CCC(COC(F)(F)F)NC(=O)c1cn(-c2c(F)cc(F)cc2F)c2nc(N3C[C@@H](C)NC3=O)ccc2c1=O (mixture of isomers) [Example 453, 7-[(4R)-4-Methyl-2-oxoimidazolidin-1-yl]-4-oxo-N-[(2S)-1-(trifluoromethoxy)butan-2-yl]-1-(2,4,6-trifluorophenyl)-1,4-dihydro-1,8-naphthyridine-3-carboxamide]",–
–,–,16,"CC(C)(CC(F)(F)F)NC(=O)c1cn(-c2c(F)cc(F)cc2F)c2nc(N3CCNC3=O)ccc2c1=O [Example 376, 4-Oxo-7-(2-oxoimidazolidin-11-yl)-N-(4,4,4-trifluoro-2-methylbutan-2-yl)-1-(2,4,6-trifluorophenyl)-1,4-dihydro-1,8-naphthyridine-3-carboxamide]",–
42,97.5,–,"O=C(N[C@@H](C1CC1)C(F)(F)F)c1cn(-c2c(F)cc(F)cc2F)c2nc(N3CC[C@H](O)C3=O)ccc2c1=O [Example 467, N-[(1 S)-1-Cyclopropyl-2,2,2-trifluoroethyl]-7-[(3S)-3-hydroxy-2-oxopyrrolidin-1-yl]-4-oxo-1-(2,4,6-trifluorophenyl)-1,4-dihydro-1,8-naphthyridine-3-carboxamide]",–
61,90,–,"CC[C@H](NC(=O)c1cn(-c2c(F)cc(F)cc2Cl)c2nc(N3C(=O)CC[C@@H]3CO)ccc2c1=O)C(F)(F)F [Example 430, 1-(2-Chloro-4,6-difluorophenyl)-7-[(2R)-2-(hydroxymethyl)-5-oxopyrrolidin-1-yl]-4-oxo-N-[(2)-1,1,1-trifluorobutan-2-yl]-1,4-dihydro-1,8-naphthyridine-3-carboxamide]",–
–,–,173,"CC[C@@H](NC(=O)c1cn(-c2ccc(F)cc2F)c2nc(N3CC(F)C3)ccc2c1=O)C(F)(F)F [Example 32, 1-(2,4-Difluorophenyl)-7-(3-fluoroazetidin-1-yl)-4-oxo-N-[(2R)-1,1,1-trifluorobutan-2-yl]-1,4-dihydro-1,8-naphthyridine-3-carboxamide]",–
–,–,90,"CC1(O)CCCN(c2ccc3c(=O)c(C(=O)NC45CC6CC(CC(C6)C4)C5)cn(-c4ccc(F)cc4F)c3n2)C1 (racemic) [Example 119, rac-1-(2,4-Difluorophenyl)-7-(3-hydroxy-3-methylpiperidin-1-yl)-4-oxo-N-(tricyclo[3.3.1.1^3,7]dec-1-yl)-1,4-dihydro-1,8-naphthyridine-3-carboxamide]",–
–,–,169,CC(NC(=O)c1cn(-c2ccc(F)cc2F)c2nc(N3CCCC3=O)ccc2c1=O)C(F)(F)F (stereo not drawn) [Example 179],–
93,84,–,"CC[C@H](NC(=O)c1cn(-c2c(Cl)cc(F)cc2Cl)c2nc(N3CCNC3=O)ccc2c1=O)C(F)(F)F [Example 654, 1-(2,6-Dichloro-4-fluorophenyl)-4-oxo-7-(2-oxoimidazolidin-1-yl)-N-[(2S)-1,1,1-trifluorobutan-2-yl]-1,4-dihydro-1,8-naphthyridine-3-carboxamide]",–
16,96.5,–,"CC[C@H](NC(=O)c1cn(-c2c(F)cc(F)cc2Cl)c2nc(N3C[C@@H](O)[C@H](O)C3)ccc2c1=O)C(F)(F)F [Example 566, 1-(2-Chloro-4,6-difluorophenyl)-7-[(3R,4R)-3,4-dihydroxypyrrolidin-1-yl]-4-oxo-N-[(2S)-1,1,1-trifluorobutan-2-yl]-1,4-dihydro-1,8-naphthyridine-3-carboxamide]",–
–,–,82,"CC(NC(=O)c1cn(-c2ccc(F)cc2F)c2nc(N(C)C)ccc2c1=O)C(F)(F)F (racemic) [Example 147, rac-1-(2,4-Difluorophenyl)-7-(dimethylamino)-4-oxo-N-(1,1,1-trifluoropropan-2-yl)-1,4-dihydro-1,8-naphthyridine-3-carboxamide]",–
41,95.5,–,"O=C(NC12CC(F)(C1)C2)c1cn(-c2c(F)cc(F)cc2Cl)c2nc(N3C[C@@H](O)[C@H](O)C3)ccc2c1=O [Example 401, 1-(2-Chloro-4,6-difluorophenyl)-7-[(3R,4R)-3,4-dihydroxypyrrolidin-1-yl]-N-(3-fluorobicyclo[1.1.1]pent-1-yl)-4-oxo-1,4-dihydro-1,8-naphthyridine-3-carboxamide]",–
